From ChEMBL document CHEMBL1134182, “Modified synthesis and antiangiogenic activity of linomide” (2001)

Experiments:
Mus musculus [1] = experiment: In vivo effect of compound on VEGF-induced angiogenesis in blood vessels of mice; format: functional
Mus musculus [2] = experiment: In vivo effect of compound on VEGF-induced angiogenesis in blood volume of mice; format: functional

Q: With CN(C(=O)c1c(O)c2ccccc2n(C)c1=O)c1ccccc1 [ROQUINIMEX] as the compound, how does the Activity (Mus musculus [1]) read?
A: <3.48%

Q: And the Blood volume (Mus musculus [2])?
A: <0.33 HB g ml-1
